Measurements published in US20210386752A1, “Uses of Electron Transport Chain Complex I or Complex II Inhibitors in Treating Cancer, Combination Therapies, and Diagnostic Methods Related Thereto” (Emory University, priority 2020, published 2021).

Columns and labels:
[1] = biological target: T1, succinate ubiquinone reductase (SQR) activity of Complex II (Homo sapiens, UniProt O14521+Q99643); assay: SQR activity assay in permeabilized cells; type: biochemical; conditions: TTFA-treated KMS11 cells, 24 h
T1 construct: endogenous in cells; host or cells: KMS11 multiple myeloma cells, permeabilized
T1 sequence (Q99643 30-169): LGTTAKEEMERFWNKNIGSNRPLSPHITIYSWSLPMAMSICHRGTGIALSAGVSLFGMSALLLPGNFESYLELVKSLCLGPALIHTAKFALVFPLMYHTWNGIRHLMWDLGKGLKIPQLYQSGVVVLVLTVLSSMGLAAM
T1 sequence (O14521 57-159): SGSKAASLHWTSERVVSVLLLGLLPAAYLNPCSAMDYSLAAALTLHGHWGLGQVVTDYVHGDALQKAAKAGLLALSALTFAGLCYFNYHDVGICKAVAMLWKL
T1 sequence (P31040 43-664 partner): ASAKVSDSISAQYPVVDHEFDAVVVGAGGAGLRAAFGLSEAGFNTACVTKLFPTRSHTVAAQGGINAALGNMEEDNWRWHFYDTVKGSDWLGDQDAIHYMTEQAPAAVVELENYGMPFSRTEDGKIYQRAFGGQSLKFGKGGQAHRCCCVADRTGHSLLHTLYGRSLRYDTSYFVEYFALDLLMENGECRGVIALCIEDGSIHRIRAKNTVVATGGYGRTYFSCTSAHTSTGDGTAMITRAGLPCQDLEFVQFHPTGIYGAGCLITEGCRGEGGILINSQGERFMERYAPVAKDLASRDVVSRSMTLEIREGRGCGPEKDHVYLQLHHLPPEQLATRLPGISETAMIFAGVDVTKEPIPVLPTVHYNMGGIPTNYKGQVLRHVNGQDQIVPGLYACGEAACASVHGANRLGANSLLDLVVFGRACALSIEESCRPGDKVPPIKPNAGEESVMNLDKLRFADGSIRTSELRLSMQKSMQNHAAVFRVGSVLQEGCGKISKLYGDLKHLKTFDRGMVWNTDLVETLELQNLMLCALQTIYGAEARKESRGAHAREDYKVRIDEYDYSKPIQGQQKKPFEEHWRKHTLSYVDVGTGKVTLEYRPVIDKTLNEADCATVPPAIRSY
T1 sequence (P21912 29-280 partner): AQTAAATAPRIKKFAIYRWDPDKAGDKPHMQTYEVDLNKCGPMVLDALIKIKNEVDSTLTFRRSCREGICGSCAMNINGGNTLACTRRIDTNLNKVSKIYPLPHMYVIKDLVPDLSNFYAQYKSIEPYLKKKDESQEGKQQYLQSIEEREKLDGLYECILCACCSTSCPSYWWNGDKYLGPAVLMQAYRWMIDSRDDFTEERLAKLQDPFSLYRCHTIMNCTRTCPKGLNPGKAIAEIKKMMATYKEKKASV
Text: Given reduced oxygen consumption rates (OCR) in sensitive cells, the activities of mitochondrial Complex I and II were examined. Mitochondrial Complex I and II receive electrons from the electron donors NADH or FADH2 respectively, that are transferred to the terminal electron acceptor (O2) via a series of redox reactions. Complex I or NADH:Coenzyme Q:oxidoreductase is the largest multimeric respiratory complex of ETC comprised of over 40 subunits with its catalytic subunit containing the NADH binding site. Electrons from NADH are transferred to FMN and then to FeS clusters and finally to ubiquinone where ubiquinone is reduced to ubiquinol. […] Complex I activity was measured using an assay that relies on immunocapture of Complex I from freshly prepared cellular protein extracts. The NADH dehydrogenase activity of immunocaptured Complex I was determined by the oxidation of NADH and simultaneous reduction of the provided dye resulting in increase in absorbance. SDH and SQR activities were measured in live permeabilized cells, containing intact mitochondria pretreated with inhibitors of Complex I (rotenone), Complex III (antimycin) and Complex IV (sodium azide), allowing for selective measurement of SQR or SDH activity. […]
Succinate ubiquinone reductase (SQR) and succinate dehydrogenase (SDH) activity assays were performed by absorbance-based assays using different electron acceptors. […]

[2] = biological target: T2, citrate synthase (Homo sapiens, UniProt O75390); assay: Citrate synthase (CS) activity assay; type: biochemical; conditions: TTFA-treated KMS11 cells
T2 construct: Citrate synthase activity assay was measured in 0.3×10^6 cells harvested per sample and washed with PBS; endogenous in cells; host or cells: KMS11 multiple myeloma cells
T2 sequence (O75390 28-466): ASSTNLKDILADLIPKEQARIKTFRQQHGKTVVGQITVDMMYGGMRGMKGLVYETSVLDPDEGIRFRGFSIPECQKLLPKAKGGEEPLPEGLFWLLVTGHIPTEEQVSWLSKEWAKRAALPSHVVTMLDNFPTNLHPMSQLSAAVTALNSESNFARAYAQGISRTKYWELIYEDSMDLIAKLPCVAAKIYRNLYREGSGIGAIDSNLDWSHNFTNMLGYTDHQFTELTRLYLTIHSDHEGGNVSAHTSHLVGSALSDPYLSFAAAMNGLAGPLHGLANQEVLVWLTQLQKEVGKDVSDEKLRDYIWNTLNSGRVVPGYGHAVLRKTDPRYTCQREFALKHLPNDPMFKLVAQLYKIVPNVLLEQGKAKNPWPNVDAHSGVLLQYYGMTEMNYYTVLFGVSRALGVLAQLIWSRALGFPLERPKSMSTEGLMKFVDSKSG
Description: Citrate synthase activity assay was measured in 0.3×10^6 cells harvested per sample and washed with PBS. Cells were resuspended in 10 mM Tris (pH 8.5) and 0.1% Triton X-100 assay buffer, containing 300 μM acetyl CoA and 100 μM 5,5′-dithiobis(2-nitrobenzoic acid) (DTNB=molar extinction coefficient 13.6 mM^−1 cm^−1). Reaction was started by the addition of 0.5 mM oxaloacetic acid and change in absorbance recorded at 412 nm wavelength every min for 10 min. SQR, SDH and CS activity measurements were performed with 100 μL sample containing 0.3×10^6 permeabilized cells.

[3] = tested on: MM cell lines; assay: Spare respiratory capacity (Seahorse XFe96 stress assay); type: cell-based; conditions: TTFA treated KMS11 cells
Description: Spare capacity in venetoclax-sensitive and venetoclax -resistant cells was determined by subtracting basal OCR from maximal OCR.

O=C(CC(=O)C(F)(F)F)c1cccs1 [TTFA, 4,4,4-trifluoro-1-(2-thienyl)-1,3-butanedione]
SQR activity [1]: Significant reduction in SQR activity
CS activity [2]: remained unaffected
spare respiratory capacity (SRC) [3]: concordantly reduced
